We go through six molecules from BindingDB's records for doi:10.1016/j.bmcl.2004.01.094 (Arqule, 2004).

In test [1] the target is Methionyl-tRNA synthetase (Enterococcus faecalis). The experiment in a line: Inhibition of Enterococci faecalis methionyl-tRNA synthetase (EfMetRS).
In test [2] the target is Methionyl-tRNA synthetase (Staphylococcus aureus). The experiment in a line: Inhibition of Staphylococcus aureus methionyl-tRNA synthetase (SaMetRS).
The target is the same in test [3]. The test is described as above. This is another data set of the same source.

A word on the IC50: it is the concentration that gives 50% inhibition. A low value points to greater potency in that assay. For the molecule `CC/C(=C1/N=C(c2ccc(Br)cc2)OC1=O)N1CCC[C@H]1C(=O)N[C@@H](Cc1ccc(O)cc1)C(N)=O` [(S)-1-{1-[2-(4-Bromo-phenyl)-5-oxo-oxazol-(4Z)-ylidene]-propyl}-pyrrolidine-2-carboxylic acid [(S)-1-carbamoyl-2-(4-hydroxy-phenyl)-ethyl]-amide], the figures for the IC50 in test [1] and in test [2] were 5.93 µM and 0.85 µM, respectively.
With `NC(=O)[C@H](Cc1ccc(O)cc1)NC(=O)[C@@H]1CCCN1/C=C1\N=C(c2ccc(Br)cc2)OC1=O` [(S)-1-[2-(4-Bromo-phenyl)-5-oxo-oxazol-(4Z)-ylidenemethyl]-pyrrolidine-2-carboxylic acid [(S)-1-carbamoyl-2-(4-hydroxy-phenyl)-ethyl]-amide], the IC50 amounted to 48 µM in test [1] and 1.1 µM in test [3].
As for `CCC/C(=C1/N=C(c2ccc(Br)cc2)OC1=O)N1CCC[C@H]1C(=O)N[C@@H](Cc1ccc(O)cc1)C(N)=O` [(S)-1-{1-[2-(4-Bromo-phenyl)-5-oxo-oxazol-(4Z)-ylidene]-butyl}-pyrrolidine-2-carboxylic acid [(S)-1-carbamoyl-2-(4-hydroxy-phenyl)-ethyl]-amide], the IC50 was 3.11 µM in test [1] and 0.76 µM in test [3].
For the molecule `NC(=O)[C@H](Cc1ccc(O)cc1)NC(=O)[C@@H]1CCCN1/C=C1\N=C(c2ccc(Cl)cc2Cl)OC1=O` [(S)-1-[2-(2,4-Dichloro-phenyl)-5-oxo-oxazol-(4Z)-ylidenemethyl]-pyrrolidine-2-carboxylic acid [(S)-1-carbamoyl-2-(4-hydroxy-phenyl)-ethyl]-amide], the IC50 was determined as 14 µM in test [1] and 0.68 µM in test [2].
For `CCC/C(=C1/N=C(c2ccc(Br)cc2)OC1=O)N1CC[C@H]1C(=O)N[C@@H](Cc1ccc(O)cc1)C(N)=O` [(S)-1-{1-[2-(4-Bromo-phenyl)-5-oxo-oxazol-(4Z)-ylidene]-butyl}-azetidine-2-carboxylic acid [(S)-1-carbamoyl-2-(4-hydroxy-phenyl)-ethyl]-amide], in test [2], the IC50 worked out at 0.087 µM.
Consider `NC(=O)[C@H](Cc1ccc(O)cc1)NC(=O)[C@@H]1CCN1/C=C1\N=C(c2ccc(Br)cc2)OC1=O` [(S)-1-[2-(4-Bromo-phenyl)-5-oxo-oxazol-(4Z)-ylidenemethyl]-azetidine-2-carboxylic acid [(S)-1-carbamoyl-2-(4-hydroxy-phenyl)-ethyl]-amide], for which the IC50 in test [1] turned out to be 1.4 µM; in test [2] it was 0.51 µM.
